Blank lines part the entries; values can stand above or below the compound they belong to.
Key:
LLC tumors = test: Inhibition of LLC tumor growth in mice with different taxol preparations; assay type: in vivo; conditions: ca. 100 μg taxol per injection, two injections, twenty days after first injection, untreated 2.00±0.60 g
Method: Inhibition of tumor growth with different taxol preparations. Mice with LLC tumors were injected with different taxol formulations on day 10 post inoculation (ca. 100 μg of taxol per animal per injection). On day 5 after the first administration, the injections were repeated. Twenty days after the first injection, the mice were sacrificed; tumors extracted, rinsed twice with saline, wiped, and weighed. There were five mice in each experimental group.

[1] = Encapsulation of tamoxifen into PEG-PE micelles; assay type: physicochemical; conditions: drug/PEG-PE molar ratio 1:1, after 0.22 μm filtration
Method: Tamoxifen dissolved in methanol was added to the solution of PEG-PE in chloroform to obtain the drug/PEG-PE molar ratio of 1:1. Organic solvents were evaporated and micelles were formed by shaking the tamoxifen/PE-PEG film obtained in the presence of an aqueous buffer at 50° C. Free tamoxifen was removed by filtration through 0.22 μm filters. Tamoxifen was quantified using the assay procedure for diethylstilbesterol (United States Pharmacopeal Convention, 2000).

[2] = Micelle size by dynamic light scattering and freeze-fracture electron microscopy; assay type: physicochemical; conditions: PEG-PE micelles with vs without tamoxifen
Method: When required, 0.5 ml of a 12 μM solution of 2C5 or 2G4 in borate, pH 9.0 was added to 0.5 ml of pNP-PEG-PE-containing micelles with a PEG-PE concentration of 1.5 mM. The mixture was incubated for 3 h at room temperature (RT) and dialyzed against HBS, using cellulose ester membranes with a cut-off size of 300,000 Da (Spectrum Medical Industries, Rancho Dominguez, Calif.). To assess the quantity of the micelle-bound protein, CF-labeled antibody was used. Protein concentration was measured by associated fluorescence at an excitation wavelength of 490 nm and an emission of 520 nm on a F-2000 spectrofluorimeter (Hitachi, Japan). The micelle size was measured by dynamic light scattering using a N4 Plus Submicron Particle System (Coulter Corporation, Miami, Fla.) at PEG-PE concentration of 2-10 mM.
Freeze-fracture electron microscopy. The sample was quenched using the sandwich technique and liquid nitrogen-cooled propane. A cooling rate of 10,000K/sec avoids ice crystal formation and cryofixation-caused artifacts. The fracturing process was carried out in JEOL JED-9000 freeze-etching equipment (Jeol, Peabody, Mass.) and the exposed fracture planes were shadowed with Pt for 30 sec at an angle of 25-35 degrees followed with carbon for 35 sec (2 kV, 60-70 mA, 1×10^−5 Torr). […]

[3] = Incorporation of porphyrin into PEG-PE micelles; assay type: physicochemical
Method: Porphyrin dissolved in methanol was added to a solution of PEG-PE in chloroform to obtain various final ratios of components. Organic solvents were removed under vacuum. Micelles were formed by shaking the PEG-PE/porphyrin film obtained in the presence of an aqueous buffer. Excess of porphyrin not incorporated into the micelles was separated by filtration of the micelle suspension through 0.2 μm filter. Concentration of porphyrin in micellar phase was estimated following the fluorescence at the excitation wavelength of […] and the emission wavelength of 674 nm (F635/674) after 100-200-fold dilution of the samples in methanol.

Compound: CC(=O)O[C@H]1C(=O)[C@@]2(C)[C@H]([C@H](OC(=O)c3ccccc3)[C@]3(O)C[C@H](OC(=O)[C@H](O)[C@@H](NC(=O)c4ccccc4)c4ccccc4)C(C)=C1C3(C)C)[C@]1(OC(C)=O)CO[C@@H]1C[C@@H]2O [free taxol, paclitaxel]
average weight of excised tumors (LLC tumors): 1.58 ± 0.48 g

tamoxifen incorporated into PEG-PE micelles [1]: more than 95%
Compound: CC/C(=C(\c1ccccc1)c1ccc(OCCN(C)C)cc1)c1ccccc1 [tamoxifen]
effect of drug incorporation on micelle size [2]: does not change the size of the micelles significantly

efficiency of incorporation into micelles ([3]; initial porphyrin/PEG-PE weight ratio of 1/2): about 80%
efficiency of incorporation into micelles ([3]; initial porphyrin/PEG-PE weight ratio of up to 1/5): ~100%
drug/PEG-PE in the resultant micelles ([3]; initial weight ratio of 1/2): 2/5
Compound: chlorin e6 trimethyl ester [porphyrin]
